Experimental data reported in patent US10329262B2, “Quinazolinone antibiotics” (priority 2013, dated 2019).

Experiments:
HepG2 cells = experiment: cells; conditions: Homo sapiens, HepG2, 16 h, read-out: IC50, XTT cell proliferation assay
Method: HepG2 cells (ATCC HB-8065) were maintained in monolayer culture at 37° C. and 5% CO2 in Dulbecco's Modified Eagle's Medium supplemented with 10% fetal bovine serum, non-essential amino acids, 2 mM L-glutamine, and 1% penicillin-streptomycin. […] The cells were washed with Dulbecco's PBS twice, 150 μL of XTT working solution was added to each well, followed by 3-h incubation. Absorbance at 475 nm (test wavelength) and 660 nm (reference wavelength) was read with a microplate reader. Experiments were performed in triplicate and repeated twice. IC50 values were calculated using GraphPad prism 5.

Plasma stability = format: in vitro ADME; conditions: mouse, 37° C.
Method: Compound 2 (20 μM) was incubated in blank mouse plasma at 37° C. and aliquots were taken at specific time points and quenched with two volumes of acetonitrile containing internal standard. Samples were centrifuged and analyzed by reverse-phase UPLC.

S. aureus NRS100 = experiment: MIC, CLSI broth microdilution, S. aureus NRS100; format: cell-based, Staphylococcus aureus
Method: MICs were evaluated following the CLSI microdilution method in BBL™ Mueller-Hinton II broth (Wikler et al., Clinical Laboratory Standards Institute Document M7-A7, 29 (2009)). Briefly, two-fold serial dilutions of compound were prepared in triplicate in 96-well plates and inoculated with 5×10^5 cfu/mL of the bacterial suspension. Plates were incubated at 37° C. for 16-20 hours.

[1] = Plasma protein binding, rapid equilibrium dialysis, mouse; format: in vitro ADME; conditions: pH 7.4, mice, 6 h dialysis
Method: Aliquots from both chambers were quenched with 1:2 v/v acetonitrile containing an internal standard. The samples were concentrated to dryness on a miVac concentrator and the residue resuspended in 50:50 acetonitrile/water. Samples were analyzed by reverse-phase ultraperformance liquid chromatography (UPLC) with UV/Vis detection. Plasma protein binding of quinazolinone 2 was 98.0±0.04% in mice and 96.5±0.70% in humans.

in vivo = conditions: mouse, in vivo
Method: We conducted first fast PK studies (n=2 mice per time point, 5 time points) dosing the compounds iv, followed by full PK studies for selected compounds (n=3 mice per time point, 10-12 time points per route of administration, iv and po).
A single dose of compound 2 was administered to mice (n=3 per time point) by tail vein injection or by oral gavage at 10 mg/kg. Blood was collected by cardiac puncture in heparinized syringes at 2, 5, 20, and 40 min and at 1, 2, 3, 4, 8, 18, and 24 h after iv dosing and at 0.5, 1, 2, 3, 4, 6, 9, 24, and 30 h after po dosing. Blood was centrifuged to obtain plasma. A 50-μL aliquot of plasma was mixed with 100 μL of acetonitrile containing internal standard (5 μM final concentration), followed by centrifugation at 20,000 g for 15 min. The supernatant was analyzed by reverse-phase UPLC. PK parameters were calculated as described in the Plasma protein binding and Pharmacokinetics sections below (see also Gooyit et al. J. Med. Chem. 54, 6676-6690 (2011)).
The area under the concentration-time curve up to the last quantifiable sampling time (AUC0-last) was calculated by the trapezoidal rule. AUC0-∞ was calculated as AUC0-last+(Clast/k), where Clast is the concentration at the last quantifiable sampling time and k is the elimination rate constant. The concentration at time=0 (C0) was estimated from the first sampling times by back-extrapolation using log-linear regression analysis. Half-lives (t1/2α and t1/2β) were estimated from the linear portion of the initial or terminal concentration-time data by linear regression, where the slope of the line was the rate constant k and t1/2α=ln 2/k. Volume of distribution (Vd) was calculated as the dose divided by the initial concentration (C0). Clearance (CL) was calculated from the dose divided by AUC0-∞. Oral bioavailability (F) was calculated by dividing the AUCpo by the AUCiv, as equivalent iv and po doses were administered.

`N#Cc1ccc(/C=C/c2nc3ccccc3c(=O)n2-c2cccc(C(=O)O)c2)cc1.[Na]` [Compound 2, Sodium (E)-3-(3-carboxyphenyl)-2-(4-cyanostyryl)quinazolin-4(3H)-one] showed an IC50 (HepG2 cells) of 63 ± 1 µg/mL, a half-life at 20 μM (Plasma stability) of 141 h and an MIC (S. aureus NRS100; Staphylococcus aureus, NRS100) of 16 µg/mL. It also gave an In vitro AB activity (MIC) (S. aureus NRS100; Table 2.1, S. aureus NRS100) of 16 µg/mL, a fraction unbound at 6 h, 10 μM [1] of 0.02 and a clearance (in vivo; ICR, iv, 10 mg/kg) of 7.1 mL/min/kg. For the same molecule, the concentration at 24 h (in vivo; ICR, iv, 10 mg/kg) was 142 ± 53 ng/mL, the t1/2elimination (in vivo; ICR, iv, 10 mg/kg) was 22 h and the half-life (in vivo; ICR, po, 10 mg/kg) was 58 h. It also gave an AUC (in vivo; female, ICR, iv) of 23500 ng·h/mL, a clearance (in vivo; female, ICR, iv) of 7.1 mL/min/kg and a Vd (in vivo; female, ICR, iv, 10 mg/kg) of 0.0076 L. For the same molecule, the half-life (in vivo; female, ICR, iv, 10 mg/kg) was 22 h, the AUC (in vivo; female, ICR, po, 10 mg/kg) was 15500 ng·h/mL and the bioavailability (in vivo; female, ICR, po, 10 mg/kg, F (oral bioavailability)) was 66%. It also gave a bioavailability (in vivo; 10 mg/kg, F (absolute oral bioavailability)) of 66%, an AUC(0-inf) (in vivo; iv, 10 mg/kg) of 23500 ng·h/mL and an AUC(0-t) (in vivo; iv, 10 mg/kg) of 19700 ng·h/mL. For the same molecule, the C0 (in vivo; iv, 10 mg/kg) was 33000 ng/mL, the “Clearance as share of hepatic blood flow in mice” value (in vivo; iv, 10 mg/kg) was “less than 10%” and the “Distribution t1/2α” value (in vivo; iv, 10 mg/kg) was 0.243 h. It also gave a Vd (in vivo; iv, 10 mg/kg) of 0.303 L/kg, a Volume of distribution (in vivo; iv, 10 mg/kg) of 0.3 L/kg and a clearance (in vivo; iv, 10 mg/kg) of 7.07 mL/min/kg. For the same molecule, the concentration at 24 h (in vivo; iv, 10 mg/kg) was 142 ± 53 ng/mL, the t1/2distribution (in vivo; iv, 10 mg/kg) was 0.242 h and the t1/2elimination (in vivo; iv, 10 mg/kg) was 22.3 h. For the same molecule, the “Plasma level at 24 hours” value (in vivo; iv, 10 mg/kg, 24 h) was 142 ± 53 ng/mL, the AUC(0-inf) (in vivo; po, 10 mg/kg) was 15500 ng·h/mL and the AUC(0-t) (in vivo; po, 10 mg/kg) was 6550 ng·h/mL. For the same molecule, the Cmax (in vivo; po, 10 mg/kg) was 1290 ng/mL, the “Time of maximum concentration” value (in vivo; po, 10 mg/kg) was 1 h and the half-life (in vivo; po, 10 mg/kg) was 58.2 h. The t1/2distribution (in vivo; po, 10 mg/kg) was 2.06 h.
